Measured values reported in patent US20050164979A1, “Pharmaceutical composition for ophthalmological and rhinological application” (priority 2001, published 2005).

Legend:
cornea epithelium = test: wound healing after injury to the cornea epithelium or cauterisation of the cornea; type: in vivo; conditions: less scarring
[1] = tear film tearing time (fluorescein, slit lamp); type: in vivo; conditions: concentration of 0.1% by weight to 0.3% by weight
Description: A further diagnostic parameter in regard to diagnosis of the “dry eye” syndrome is the tear film tearing time which makes it possible to provide information about the quality of the tear fluid. In that case for example the tear film is dyed with fluorescein and the patient is then asked to keep the eyes open as long as possible without a blink reflex. A slit lamp is then used to establish when the tear film tears open for the first time. If the period of time is less than 10 seconds, there is the suspicion of the “dry eye” syndrome.

[2] = test system: cornea-epithelial barrier; conditions: dexpanthenol-bearing eye drops; barrier disturbed by insufficient tear film; Klinische Monatsblätter für Augenheilkunde (1996) 209; 84-88; cited from earlier work
[3] = eye drops containing at least 0.1% of sodium hyaluronate; Jpn. J. Ophthalmol. (1996) 40: 62-65; cited from earlier work
[4] = test system: cornea epithelium cells of rabbits; test: epithelium cell migration; type: cell-based; conditions: 0.1% by weight sodium hyaluronate solution
[5] = subjective feeling of patients when treating dry eyes; type: in vivo; conditions: 0.1% by weight of sodium hyaluronate in the composition
Description: Aqueous sodium hyaluronate solutions are fluids with non-Newtonian flow properties. By virtue of that physical property, aqueous sodium hyaluronate solutions are excellently well suited as slip and lubricating agents with a good cling effect and a prolonged residence time on the conjunctival and corneal epithelia, without adversely affecting visual efficiency.

| Compound | wound healing (cornea epithelium) | prolonging the tear film tearing time [1] | cornea-epithelial barrier function [2] | tear film stability [3] | epithelium cell migration [4] | subjective feeling of the patients [5] |
| --- | --- | --- | --- | --- | --- | --- |
| hyaluronic acid | faster and better wound healing | highly effective | – | – | – | – |
| CC(C)(CO)[C@@H](O)C(=O)NCCCO [dexpanthenol, D-(+)-2,4-dihydroxy-N-(3-hydroxypropyl)-3,5-dimethylbutyramide] | – | – | improve the cornea-epithelial barrier function | – | – | – |
| sodium hyaluronate | faster and better wound healing | – | – | improvement in tear film stability | increased epithelium cell migration | considerably improves |
